Data taken from patent US20250032425A1, “FIRST IN CLASS USE OF ESTROGEN RECEPTOR BETA AGONISTS IN TREATING ANGELMAN SYNDROME AND RELEVANT AUTISM SPECTRUM DISORDERS” (BROWN UNIVERSITY, priority 2023, published 2025).
Entries after “also recorded” stand apart in the source; their conditions may differ.

Test system: Angelman syndrome (AS) mice
Test: Immunofluorescence histopathology of brain sections after treatment (oligodendroglia, myelination, ESRβ, UBE3A)
Type: in vivo, mouse
Procedure: For immunofluorescence with brain tissue sections, mice were sacrificed under deep anesthesia using Xylazine (10 mg/kg body weight) and Ketamine (100 mg/kg body weight) and perfused through the left cardiac ventricle with ice-cold phosphate-buffered saline (PBS) followed by 4% paraformaldehyde (PFA) in PBS. Whole brains were removed and post-fixed in 4% PFA overnight at 4° C. followed by sequential immersion in 15% and 30% sucrose for cryoprotection. The brain was then dissected and 25 μm coronal sections were prepared with a Cryostat Leica. Sections collected on the charged microscope slides (Globe Scientific #1354W) were processed for immunohistochemical staining as follows. In brief, tissue sections were blocked for 1 hour at room temperature (RT) in 5% goat/donkey serum (G/DS) with 0.3% Triton-X100 in 0.1 M phosphate buffer (0.3% PBST). After blocking, tissue sections were incubated in primary antibody diluted in blocking solution overnight at 4° C. The following day, sections were briefly washed 3 times for 5 min each at RT in PBS followed by incubation with secondary antibodies diluted in blocking solution for 2 hours at RT. Sections were then briefly washed 3 times for 5 min each at RT in PBS and mounted using EMS Shield Mount with Dabco (Electron Microscopy Sciences, #17985-200) mounting media with 4′,6-diamidino-2-phenylindole (DAPI) (Vector Laboratories, #H-1200) to stain cell nuclei.
For the purpose of imaging brain sections, we utilized both the BioTek Lionheart FX Automated Microscope and the Zeiss LSM 880 confocal laser-scanning microscope. The subsequent image analysis and quantification were conducted using NIH ImageJ software, employing the particle and intensity analysis macro for detailed examination. Channels were separated, and images from various experimental groups were thresholded uniformly to identify individual cells. In each brain, 20-30 cells were outlined for analysis. To determine the extent of colocalization, we applied the Zeiss ZEN Microscopy Software's colocalization coefficient analysis tool, which allowed for precise measurement of overlapping signals within the selected cells.
To assess the levels of UBE3A protein within oligodendroglial cells, dual immunofluorescent staining was conducted. This involved the use of a UBE3A antibody sourced from Santa Cruz Biotechnology (sc-10294) and an Olig2 antibody provided by Aves Labs (#OLIG2-0020). The corresponding secondary antibodies were tagged with Alexa 647 and Alexa 488 fluorophores. These procedures were applied to coronal brain sections harvested from postnatal days 7-10, 30, and 42 from both control and Angelman Syndrome (AS) mice. We utilized a 20× objective on a GENS microscope to capture confocal images of UBE3A and Olig2 expression. Subsequent analysis was performed using NIH ImageJ software, where fluorescence intensities, denoted in arbitrary units (a.u.), were measured to determine the relative quantities of UBE3A protein. The quantification process involved delineating areas of interest around Olig2-positive cells. Quantitative analysis of ESR2 and MBP proteins was carried out using a similar method.
ESRβ agonist AC-186 treatment in vivo. 10 mg/kg AC-186 was daily IP delivered after dissolved at high concentration (30 mg/ml) in DMSO and further diluted in 20% PEG300. Vehicle groups received the same volume and concentration of diluted DMSO in 20% PEG300. Treatment started at P13 and continued until mice were sacrificed at P42.

[1] = corpus callosum, AS mice vs AS saline
[2] = corpus callosum, AS mice vs AS vehicle
[3] = cortex, hippocampus, and fimbria, AS mice vs AS saline

## Oc1ccc(C2(c3ccccc3F)CCC(F)(F)CC2)cc1 [AC-186]
AS mice vs AS saline
  UBE3A intensity: did not modify; also recorded: comparable
AS mouse brains
  oligodendrocyte populations and myelination: notably restored
[1]
  ESRβ intensity in Olig2-positive and O4-positive cells: slightly increased; also recorded: increased
  O4-positive cells/mm^2: increased
  Olig2-positive cells/mm^2: increased
[2]
  OPC density (PDGFRa-positive cells per square millimeter): increased
  proliferating OPCs (Ki67 and PDGFRa dual positive, proportion of total OPCs): increased
[3]
  MBP intensity: increased
  O4-positive cell density: increased
  Olig2-positive cell density: increased
Wildtype mice
  oligodendrocyte populations and myelination: no impact
